Reference: paper PMC8983201 (Evidence-based Complementary and Alternative Medicine : eCAM, 2022)

Tests used:
Type in all cases: cell-based
[1] = tested on: tested cancer cell lines; test: RRA cytotoxicity, summary over the panel of tested cancer cell lines; conditions: all cell lines tested (Table 3 panel)
Description: (§1) 18 cancer cell lines and normal hepatocyte AML12 were used in the present study. Cancer cell lines such as drug-sensitive leukemia CCRF-CEM and multidrug-resistant P-glycoprotein-overexpressing subline CEM/ADR5000 cells, breast cancer MDA-MB-231-pcDNA cells and its resistant subline MDA-MB-231-BCRP clone 23 cells, colon cancer HCT116 p53^+/+ cells and its knockout clone HCT116 p53^−/−, glioblastoma U87MG cells, and its resistant subline U87MG.ΔEGFR [7, 23, 24]. The maintenance of HepG2 cells and AML12 hepatocytes was also published. The CC531 rat colon carcinoma cells, B16-F1, B16-F10, A2058, SK-Mel505, MaMel-80a, MV3, SkMel-28, and Mel-2A, were previously reported.
(§2) Different types of human cancer cell lines were used in this study. The resazurin reduction assay (RRA) as previously described with similar experimental conditions to those reported earlier was used to measure the cell cytotoxicity. Fluorescence was measured on an Infinite M2000 Pro™ plate reader (Tecan, Germany) using an excitation wavelength of 544 nm and an emission wavelength of 590 nm. The viability was determined based on a comparison with untreated cells. The values representing the sample's concentrations required to inhibit 50% of cell proliferation (IC50) were calculated from a calibration curve by linear regression using Microsoft Excel 2013 [33, 34].

[2] = tested on: MaMel-80a (BRAF-V600E homozygous mutant melanoma); test: RRA cytotoxicity, MaMel-80a; conditions: Homo sapiens, compounds
Description: as §1, §2

[3] = tested on: Mel-2a (BRAF-V600E heterozygous mutant); test: RRA cytotoxicity, Mel-2a; conditions: Homo sapiens, compounds
Description: as §1, §2

[4] = tested on: A2058 (BRAF-V600E heterozygous mutant); test: RRA cytotoxicity, A2058; conditions: Homo sapiens; A2058, compounds
Description: as §1, §2

[5] = tested on: SKMel-505 BRAF wild-type melanoma cells; test: RRA cytotoxicity, SKMel-505; conditions: Homo sapiens; SKMel-505, compounds
Description: as §1, §2

[6] = tested on: B16-F1 murine melanoma; test: RRA cytotoxicity, B16-F1; conditions: Mus musculus; B16-F1, compounds
Description: as §1, §2

[7] = tested on: SKMel-28 (BRAF-V600E homozygous mutant); test: RRA cytotoxicity, SKMel-28; conditions: Homo sapiens, SK-MEL-28; SKMel-28, compounds
Description: as §1, §2

[8] = tested on: MV3 (BRAF wild type); test: RRA cytotoxicity, MV3; conditions: Homo sapiens; MV3, compounds
Description: as §1, §2

[9] = tested on: CC531 rat colon carcinoma cells; test: RRA cytotoxicity, CC531; conditions: Colon carcinoma cell, CC531, compounds
Description: as §1, §2

[10] = tested on: B16-F10 murine melanoma; test: RRA cytotoxicity, B16-F10; conditions: Mus musculus; B16-F10, compounds
Description: as §1, §2

[11] = tested on: CCRF-CEM leukemia cells; test: Resazurin reduction assay (RRA) cytotoxicity, CCRF-CEM; conditions: Homo sapiens, doxorubicin
Description: as §1, §2

[12] = tested on: MDA-MB-231-BCRP clone 23 cells; test: RRA cytotoxicity, MDA-MB-231-BCRP; conditions: Homo sapiens, doxorubicin
Description: as §1, §2

[13] = tested on: U87MG.ΔEGFR cells; test: RRA cytotoxicity, U87MG.ΔEGFR; conditions: Homo sapiens, doxorubicin
Description: as §1, §2

[14] = tested on: glioblastoma U87MG cells; test: RRA cytotoxicity, U87MG; conditions: Homo sapiens, U-87 MG, doxorubicin
Description: as §1, §2

[15] = tested on: breast cancer MDA-MB-231-pcDNA cells; test: RRA cytotoxicity, MDA-MB-231-pcDNA; conditions: Homo sapiens, doxorubicin
Description: as §1, §2

[16] = tested on: HCT116 p53−/− cells; test: RRA cytotoxicity, HCT116 (p53−/−); conditions: Homo sapiens, HCT-116, doxorubicin
Description: as §1, §2

[17] = tested on: HepG2 hepatocarcinoma cells; test: RRA cytotoxicity, HepG2; conditions: Homo sapiens; HepG2, doxorubicin column of Table 2
Description: The resazurin reduction assay (RRA) as previously described [24, 32] with similar experimental conditions to those reported earlier [26–30] was used to measure the cell cytotoxicity. Fluorescence was measured on an Infinite M2000 Pro™ plate reader (Tecan, Germany) using an excitation wavelength of 544 nm and an emission wavelength of 590 nm. The viability was determined based on a comparison with untreated cells.

[18] = tested on: normal AML12 hepatocytes; test: RRA cytotoxicity, normal AML12 hepatocytes; conditions: Mus musculus; AML12, doxorubicin column of Table 2
Description: as §1, §2

Structure (SMILES) | IC50 [1] | IC50 [2] | IC50 [3] | IC50 [4] | IC50 [5] | IC50 [6] | IC50 [7] | IC50 [8] | IC50 [9] | IC50 [10] | IC50 [11] | IC50 [12] | IC50 [13] | IC50 [14] | IC50 [15] | IC50 [16] | IC50 [17] | IC50 [18]
CC(CCC1(O)OC2CC3C4CC=C5CC(OC6OC(CO)C(O)C(OC7OC(CO)C(O)C(O)C7O)C6OC6OC(C)C(O)C(O)C6O)CCC5(C)C4CCC3(C)C2C1C)COC1OC(CO)C(O)C(O)C1O [Compound 3, (25R)-26-O-(β-D-galactopyranosyl)-furost-5-ene-3β, 22α, 26-trihydroxy-3-O-β-D-glucopyranosyl-(1 ⟶ 2)-[α-L-rhamnopyranosyl-(1 ⟶ 3)]-β-D-glucopyranoside] | > 100 µM |  |  |  |  |  |  |  |  |  |  |  |  |  |  |  |  | 
C[C@@H]1CC[C@@]2(OC1)O[C@H]1C[C@H]3[C@@H]4CC=C5C[C@@H](O)CC[C@]5(C)[C@H]4CC[C@]3(C)[C@H]1[C@@H]2C [Compound 5, diosgenin] |  | > 100 µM | > 100 µM | 27.1 ± 1.18 µM | > 100 µM | > 100 µM | > 100 µM | > 100 µM | > 100 µM | > 100 µM |  |  |  |  |  |  |  | 
C[C@@H]1CC[C@@]2(OC1)O[C@H]1C[C@H]3[C@@H]4CC=C5C[C@@H](O[C@@H]6O[C@H](CO)[C@@H](O)[C@H](O)[C@H]6O)CC[C@]5(C)[C@H]4CC[C@]3(C)[C@H]1[C@@H]2C [Compound 6, diosgenin-3-O-β-D-glucopyranoside] |  | > 100 µM | > 100 µM | 38.9 ± 2.78 µM | > 100 µM | 79.2 ± 5.39 µM | > 100 µM | > 100 µM | > 100 µM | > 100 µM |  |  |  |  |  |  |  | 
C[C@@H]1CC[C@@]2(OC1)O[C@H]1C[C@H]3[C@@H]4CC=C5C[C@@H](O[C@@H]6O[C@H](CO)[C@@H](O[C@@H]7O[C@H](CO)[C@@H](O)[C@H](O)[C@H]7O)[C@H](O)[C@H]6O[C@@H]6O[C@@H](C)[C@H](O)[C@@H](O)[C@H]6O)CC[C@]5(C)[C@H]4CC[C@]3(C)[C@H]1[C@@H]2C [Compound 7, deltonin] | > 100 µM |  |  |  |  |  |  |  |  |  |  |  |  |  |  |  |  | 
CC(CCC1(O)OC2CC3C4CC=C5CC(OC6OC(CO)C(O)C(O)C6O)CCC5(C)C4CCC3(C)C2C1C)COC1OC(CO)C(O)C(O)C1O [Compound 8, 26-O-β-D-glucopyranosyl-(22R,25R)-3β, 22, 26-trihydroxyfurost-5-ene-3-O-β-D-glucopyranoside] | > 100 µM |  |  |  |  |  |  |  |  |  |  |  |  |  |  |  |  | 
COc1cccc2c1C(=O)c1c(O)c3c(c(O)c1C2=O)C[C@@](O)(C(=O)CO)C[C@@H]3O[C@H]1C[C@H](N)[C@H](O)[C@H](C)O1 [Doxorubicin, reference compound] |  | 8.66 ± 0.56 µM | 6.63 ± 0.41 µM | 0.29 ± 0.04 µM | 9.39 ± 1.01 µM | 0.22 ± 0.01 µM | 2.14 ± 0.12 µM | 7.09 ± 0.59 µM | 0.44 ± 0.23 µM | 0.24 ± 0.03 µM | 0.02 µM | 0.79 ± 0.08 µM | 0.98 ± 0.07 µM | 0.26 ± 0.03 µM | 0.13 ± 0.01 µM | 1.78 ± 0.08 µM | 4.56 ± 0.48 µM | 52.9 ± 4.09 µM
